Experimental data taken from ChEMBL document CHEMBL1133281, “Synthesis and HIV-1 integrase inhibitory activities of caffeoylglucosides” (Bioorg Med Chem Lett, 2000).

molecular target: Human immunodeficiency virus type 1 integrase (Human immunodeficiency virus 1, UniProt Q7ZJM1); experiment: Inhibitory activity against HIV-1 integrase
Sequence (Q7ZJM1 whole entry): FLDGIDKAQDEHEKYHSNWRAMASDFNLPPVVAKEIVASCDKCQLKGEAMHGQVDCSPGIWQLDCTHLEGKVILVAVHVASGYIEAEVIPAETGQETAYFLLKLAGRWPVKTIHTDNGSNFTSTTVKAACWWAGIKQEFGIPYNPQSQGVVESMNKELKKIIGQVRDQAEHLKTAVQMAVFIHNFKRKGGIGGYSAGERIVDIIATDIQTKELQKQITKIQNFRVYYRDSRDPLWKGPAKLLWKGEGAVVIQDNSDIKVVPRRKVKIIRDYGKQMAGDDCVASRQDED

Row | SMILES | IC50
1 | CO[C@H]1O[C@H](COC(=O)/C=C/c2ccc(O)c(O)c2)[C@@H](OC(=O)/C=C/c2ccc(O)c(O)c2)[C@H](OC(=O)/C=C/c2ccc(O)c(O)c2)[C@H]1OC(=O)/C=C/c1ccc(O)c(O)c1 | > 119 µM
2 | CO[C@@H]1O[C@H](COC(=O)/C=C/c2ccc(O)c(O)c2)[C@@H](O)[C@H](OC(=O)/C=C/c2ccc(O)c(O)c2)[C@H]1O | 35.1 µM
3 | CO[C@@H]1O[C@H](COC(=O)/C=C/c2ccc(O)c(O)c2)[C@@H](O)[C@H](O)[C@H]1OC(=O)/C=C/c1ccc(O)c(O)c1 | 30.5 µM
4 | CO[C@H]1O[C@H](CO)[C@@H](O)[C@H](OC(=O)/C=C/c2ccc(O)c(O)c2)[C@H]1OC(=O)/C=C/c1ccc(O)c(O)c1 | 29.1 µM
5 | CO[C@H]1O[C@H](COC(=O)/C=C/c2ccc(O)c(O)c2)[C@@H](O)[C@H](OC(=O)/C=C/c2ccc(O)c(O)c2)[C@H]1O | 82.4 µM
6 | COC1O[C@H](CO)[C@@H](O)[C@H](OC(=O)c2cc(O)c(O)c(O)c2)[C@H]1OC(=O)c1cc(O)c(O)c(O)c1 (stereo partly specified) | 5.4 µM
7 | CO[C@@H]1O[C@H](CO)[C@@H](O)[C@H](OC(=O)/C=C/c2ccc(O)c(O)c2)[C@H]1OC(=O)/C=C/c1ccc(O)c(O)c1 | 31.8 µM
8 | CO[C@@H]1O[C@H](COC(=O)/C=C/c2ccc(O)c(O)c2)[C@@H](OC(=O)/C=C/c2ccc(O)c(O)c2)[C@H](OC(=O)/C=C/c2ccc(O)c(O)c2)[C@H]1OC(=O)/C=C/c1ccc(O)c(O)c1 | 89.6 µM
9 | CO[C@H]1O[C@H](COC(=O)/C=C/c2ccc(O)c(O)c2)[C@@H](O)[C@H](O)[C@H]1OC(=O)/C=C/c1ccc(O)c(O)c1 | 70 µM
10 | C[C@@H]1O[C@@H](O[C@@H]2[C@@H](O)[C@H](OCCc3ccc(O)c(O)c3)O[C@H](CO)[C@H]2OC(=O)/C=C/c2ccc(O)c(O)c2)[C@H](O)[C@H](O)[C@H]1O [ACETOSIDE] | 7.8 µM
11 | COc1cc(/C=C/C(=O)CC(=O)/C=C/c2ccc(O)c(OC)c2)ccc1O [CURCUMIN] | 57.5 µM
